Data on one compound can be found in patent publication US9180136B2, “Identification and treatment of cancer subsets” (The Translational Genomics Research Institute, priority 2010, dated 2015).

The structures appear in SMILES notation. Counter-ions that a name gives are not always drawn.

Experiment [1] deals with normal human keratinocytes. Put plainly: TUNEL apoptosis staining of normal human keratinocytes at different confluence treated with IP6. The class given is cell-based. As to conditions: for apoptosis (TUNEL staining): 2 mM IP6 for 24 hours. As to the method: FIG. 12 depicts the effect of IP6 treatment on confluent normal human keratinocytes. […] The DNA blue fluorescence was produced by DAPI probe. Apoptotic nuclei red fluorescence was produced through TUNEL assay; FIG. 13 depicts the effect of IP6 treatment on 70% confluent keratinocytes. […] The DNA blue fluorescence was produced by DAPI probe. […] Normal human keratinocytes were harvested at various stages of confluency. Cell cultures were assessed by morphological evaluation of the cell and segregated into distinct culture confluence intervals at or near the plateau phase of growth, generally: lower confluence (L), 70-80%; medium confluence (M), 80-90%, and higher confluence (H), >95%. INPP5A mRNA expression at selected culture confluence levels was evaluated by qPCR.

Experiment [2] relates to transformed normal human embryonic kidney cell line (HEK-293). Put plainly: CellTiter-Glo luminescent cell viability after IP6 treatment. Type of experiment: cell-based. The settings on record: HEK-293, 0.31-5 mM IP6, 72 hours, FIG. 18. As to the method:
(§1) The human head and neck squamous cell carcinoma lines evaluated were: SCC-4, SCC-9 and SCC-15. The colorectal cancer cell line HT-29 and the kidney embryonic line HEK293, purchased from the American Type Culture Collection (ATCC, Manassas, Va.), were used for comparison. Squamous cell lines were maintained in Dulbecco's Modified Eagle Medium: Nutrient Mixture F12 (DMEM/F12), with 10% Fetal bovine serum (FBS), 2 mM GlutaMAX, 25 mM Hepes buffer, 100 U/ml penicillin and 100 μg/ml streptomycin. HEK293 and HT-29 were cultured in DMEM and RPMI-1640 medium respectively, with the supplements mentioned above. All media and cell culture supplements were purchased from Invitrogen Corporation (Carlsbad, Calif.). Sub-confluent, rapidly growing cells were plated at a density of 600 cells/20 μL/well in a clear bottom 384-well plate with opaque walls, suitable for luminescent measurements. The next day, IP6 (Inositol hexakisphosphate, phytic acid, dipotassium salt, Sigma-Aldrich, St Louis, Mo.) solutions in culture medium, corresponding to the following concentrations: 0.3125, 0.625, 1.25, 2.5 and 5 mM, were prepared, and were stored at 4° C. for 4-6 h. […] The plate was incubated at room temperature for 10 minutes, and the luminescence was read on a Perkin Elmer Victor^3 microplate reader. Data from each set of four replicates was averaged and the standard deviation was calculated. […]
(In general: ATP-based viability assays read luminescence as a measure of living cells.)

The subject of experiment [3] is colorectal adenocarcinoma (HT-29). Described as above. The class given is cell-based. The settings on record: HT-29, 0.31-5 mM IP6, 72 hours, FIG. 18. The procedure:
as §1

In experiment [4] the test system is SCC-4. The experiment is described as above. Type of experiment: cell-based, human. The settings on record: SCC-4, 0.31-5 mM IP6, 72 hours, FIG. 18. The procedure: (§2) The human head and neck squamous cell carcinoma lines evaluated were: SCC-4, SCC-9 and SCC-15. The colorectal cancer cell line HT-29 and the kidney embryonic line HEK293, purchased from the American Type Culture Collection (ATCC, Manassas, Va.), were used for comparison. Squamous cell lines were maintained in Dulbecco's Modified Eagle Medium: Nutrient Mixture F12 (DMEM/F12), with 10% Fetal bovine serum (FBS), 2 mM GlutaMAX, 25 mM Hepes buffer, 100 U/ml penicillin and 100 μg/ml streptomycin. HEK293 and HT-29 were cultured in DMEM and RPMI-1640 medium respectively, with the supplements mentioned above. All media and cell culture supplements were purchased from Invitrogen Corporation (Carlsbad, Calif.). Sub-confluent, rapidly growing cells were plated at a density of 600 cells/20 μL/well in a clear bottom 384-well plate with opaque walls, suitable for luminescent measurements. The next day, IP6 (Inositol hexakisphosphate, phytic acid, dipotassium salt, Sigma-Aldrich, St Louis, Mo.) solutions in culture medium, corresponding to the following concentrations: 0.3125, 0.625, 1.25, 2.5 and 5 mM, were prepared, and were stored at 4° C. for 4-6 h. Shortly before treatment, IP6 solutions were centrifuged to remove any precipitates that IP6 forms with calcium chloride. Four wells were treated for each condition. […] (San Luis Obispo, Calif.), following the manufacturer's instruction. Briefly, the assay buffer and substrate were equilibrated at room temperature, and mixed thoroughly. Without removing medium from wells, the assay reagent was added into each well (1:1, volume:volume of medium per well) and the content was mixed for 2 minutes on an orbital shaker to induce cell lysis. The plate was incubated at room temperature for 10 minutes, and the luminescence was read on a Perkin Elmer Victor^3 microplate reader. Data from each set of four replicates was averaged and the standard deviation was calculated. […]

Experiment [5] deals with SCC-15. The experiment is described as above. The class given is cell-based, human. As to conditions: SCC-15, 0.31-5 mM IP6, 72 hours, FIG. 18. As to the method: as §2
Experiment [6] concerns SCC-9. The description is as above. As to conditions: SCC-9, 0.31-5 mM IP6, 72 hours, FIG. 18. Type of experiment: cell-based, human. As to the method: as §2
Experiment [7] relates to SCC-4 cells. The experiment can be described thus: TUNEL apoptosis staining of SCC-4 cells treated with IP6. The class given is cell-based, human. As to conditions: SCC-4 cells treated with IP6 vs untreated, FIG. 8. The text has this:
FIG. 8 depicts increased apoptosis in a squamous cell carcinoma cell line treated with IP6 (right panel B) relative to the same line without treatment (left panel A), and the DNA blue fluorescence was produced by DAPI probe. Apoptotic nuclei red fluorescence was produced through TUNEL assay; IP6 is an inositol metabolite that is dependant upon INPP5A activity for its synthesis (See FIG. 7). Addition of exogenous IP6 inhibits the cell proliferation brought about by INPP5A loss and drives cells towards a differentiated phenotype. […] Increased TUNEL staining (red) is seen in the IP6 treated cells.

`O=P(O)(O)O[C@H]1[C@H](OP(=O)(O)O)[C@@H](OP(=O)(O)O)[C@H](OP(=O)(O)O)[C@@H](OP(=O)(O)O)[C@H]1OP(=O)(O)O` [IP6, Inositol hexakisphosphate, phytic acid, dipotassium salt]: the “apoptosis (TUNEL staining)” value in experiment [1] (70% confluent keratinocytes, FIG. 13) was “Greater apoptosis relative to background”; in experiment [1] (100% confluent keratinocytes, FIG. 12) it was “reduced apoptosis”. For the same compound, the “selectivity for cells with reduced INPP5A expression” value in experiment [1] (normal human keratinocytes at various stages of confluency) was “selective for cells with reduced INPP5A expression”. Moreover, the “proportion of cells present after treatment relative to untreated cells” value was “dose-dependent reduction in number” in experiment [2]; “dose-dependent reduction in number” in experiment [3]; “dose-dependent reduction in number, which is much greater for the SCC cells” in experiment [4]; “dose-dependent reduction in number, which is much greater for the SCC cells” in experiment [5]; “dose-dependent reduction in number, which is much greater for the SCC cells” in experiment [6]. In addition, the “cell death by apoptosis (TUNEL staining)” value in experiment [7] was “significant cell death by apoptosis”.
